Assay results taken from patent US20230000774A1, “METHODS AND COMPOSITIONS PRODUCED THEREBY” (Albumedix Limited, priority 2019, published 2023).
Converted amounts (≈) assume the structure as drawn. Like-named read-outs stand apart in the source and are kept apart here.

What was measured:
[1] = cited from earlier work; for Water Solubility: obtained from DrugBank, rimiducid value provided by Bellicum Pharmaceuticals (estimated); for Solubility in water (literature): unformulated API
[2] = obtained from DrugBank; total charge at pH 7.4; cited from earlier work
[3] = physchem; settings: organic solvent or mixture, thermodynamic from solid
Experimental: The solubility of nine poorly soluble APIs in ethanol was investigated; Acyclovir, Aripiprazole, Bifonazole, Etravirine, Ezetimibe, Glibenclamide. […] For each API, approximately 20 mg was weighed into a scintillation vial. 3 mL of ethanol was added to each vial. Samples were vortexed until completely dissolved. If after 2 mins the sample was not dissolved, a further 3 mL of ethanol was added, and the sample was vortexed again. After another 2 mins, if the sample was still not dissolved, the API in question was classed as insoluble.
To quickly assess the APIs applicability to this method, the solubility of each API in ethanol was tested.

[4] = Solubility of APIs in ethanol water mixtures; format: physicochemical; settings: ethanolic solution added to 50:50 EtOH:H2O
Experimental: APIs were dissolved in ethanol at the desired concentration (Tables 16 and 17). The required volume of this solution was added to a 50:50 solution of ethanol:HPLC grade water with stirring (Table 17).
To prepare the spray drying feed solution the API should preferably be soluble in 40:60 (v/v) ethanol/water mixtures. Any API that precipitated on addition of the ethanolic solution (from the previous section) to a 50:50 solution of EtOH:H2O was eliminated from the study.

[5] = DMSO solubility testing; format: physicochemical
Experimental: 1 mL of DMSO was added to a scintillation vial containing approximately 20 mg of Ezetimibe. The sample readily dissolved with gentle mixing.
A solution preparation method that utilised an alternative solvent was investigated. The alternative solvent needed to be similar to ethanol in its ability to dissolve the APIs whilst being miscible with water. Dimethyl sulfoxide (DMSO) was chosen as a promising candidate. Ezetimibe was chosen as a suitable API owing to its favourable COSHH assessment combined with the knowledge of DMSO as a transport agent. The solubility of Ezetimibe in DSMO was assessed by dissolving approx. 20 mg of API in 1 mL of solvent. […] The next step was to assess the API solubility in a mixture of DMSO and water.

[6] = Solubility of APIs in D5W solution; format: physicochemical; settings: saline or isotonic, thermodynamic from solid
Experimental: The solution was sampled after centrifugation (13.5 k rpm for 5 minutes) and the solubility of the APIs was determined by HPLC analysis of the saturated solution.
Analysis was performed on an Agilent 1200 series HPLC employing a Waters, Xbridge Peptide BEH C18 column (150×4.6 mm i.d., 3.5 μm). […] Bifonazole was analysed using a 1 mL/min flow rate of 65:35 HPLC methanol:ammonium acetate (5 g/L, pH 2) with UV detection at 252 nm.

[7] = Drug solubility testing of AP1903 in ethanol and methanol; format: physicochemical
Experimental: Drug solubility testing was undertaken to ascertain the highest concentration of drug solution that could be used for the preparation of the feed solution. […] Both were tested and found to perform similarly, with ˜40 mg of AP1903 dissolving into 1 mLl of solvent.

[8] = Dissolution of curcumin in water and after spray drying with rHA; format: physicochemical; settings: unformulated
[9] = D5W solution, unformulated API, saturated solution, read-out: Solubility in D5W solution

Row | Structure (SMILES) | solubility ([3]; Soluble (>[…]) in EtOH?) [µg/mL] | Soluble in EtOH/H2O mixture [4] | Water Solubility [1] | Physiological Charge [2] | further results
1 | C=CC[C@@H]1/C=C(\C)C[C@H](C)C[C@H](OC)[C@H]2O[C@@](O)(C(=O)C(=O)N3CCCC[C@H]3C(=O)O[C@H](/C(C)=C/[C@@H]3CC[C@@H](O)[C@H](OC)C3)[C@H](C)[C@@H](O)CC1=O)[C@H](C)C[C@@H]2OC [Tacrolimus] |  |  | 4.02 µg/mL | 0 | 
2 | O=C1[C@H](CC[C@H](O)c2ccc(F)cc2)[C@@H](c2ccc(O)cc2)N1c1ccc(F)cc1 [Ezetimibe] | > 1200 | Yes | 8.46 µg/mL | 0 | solubility in a mixture of DMSO and water ([5]; addition to a 50:50 DMSO:water mixture): remained in solution; solubility in DMSO ([5]; approx. 20 mg of API in 1 mL of DMSO): dissolved readily with gentle agitation; solubility at 2 min [6, 9]: 3.4 µg/mL (≈ 8.3 µM); Solubility in water (literature) [1]: 8.5 µg/mL (≈ 20.8 µM)
3 | CC(C)c1nc(CN(C)C(=O)N[C@H](C(=O)N[C@@H](Cc2ccccc2)C[C@H](O)[C@H](Cc2ccccc2)NC(=O)OCc2cncs2)C(C)C)cs1 [Ritonavir] |  |  |  | 0 | 
4 | Cc1cc(C#N)cc(C)c1Oc1nc(Nc2ccc(C#N)cc2)nc(N)c1Br [Etravirine] | < 1200 |  | 16.9 µg/mL | 0 | 
5 | Nc1nc2c(ncn2COCCO)c(=O)[nH]1 [Acyclovir] | < 1200 |  |  |  | 
6 | C#C[C@]1(O)CC[C@H]2[C@@H]3CCC4=Cc5oncc5C[C@]4(C)[C@H]3CC[C@@]21C [Danazol] |  |  |  | 0 | 
7 | O=C1NC(=O)C(c2ccccc2)(c2ccccc2)N1 [Phenytoin] | > 1200 | Yes | 71.1 µg/mL | 0 | solubility at 2 min [6, 9]: 14.1 µg/mL (≈ 55.9 µM); Solubility in water (literature) [1]: 71.1 µg/mL (≈ 282 µM)
8 | CC[C@H](C(=O)N1CCCC[C@H]1C(=O)O[C@H](CCc1ccc(OC)c(OC)c1)c1cccc(OCC(=O)NCCNC(=O)COc2cccc([C@@H](CCc3ccc(OC)c(OC)c3)OC(=O)[C@@H]3CCCCN3C(=O)[C@@H](CC)c3cc(OC)c(OC)c(OC)c3)c2)c1)c1cc(OC)c(OC)c(OC)c1 [AP1903, 1,2-Ethanediylbis[imino(2-oxo-2,1-ethanediyl)oxy-3,1-phenylene(1R)-3-(3,4-dimethoxyphen-yl)-1,1-propanediyl] (2S,2'S)bis{1-[(2S)-2-(3,4,5-trimethoxyphenyl)butanoyl]-2-piperidine-carboxylate}] |  |  | approximately 0.000001 mg/mL | 0 | amount of AP1903 dissolving in ethanol ([7]; dissolving into 1 mL of ethanol): ~40 mg; amount of AP1903 dissolving in methanol ([7]; dissolving into 1 mL of methanol): ~40 mg; Water Solubility ([1]; listed as Rimiducid (AP1903)): 0.001 µg/mL; water solubility (estimated) ([1]; provided by Bellicum Pharmaceuticals): 0.7 nM (≈ 0.988 ng/mL)
9 | c1ccc(-c2ccc(C(c3ccccc3)n3ccnc3)cc2)cc1 (stereo not drawn) [Bifonazole] | > 1200 | Yes | 2.45 µg/mL | 0 | solubility at 2 min [6]: 3.5 µg/mL (≈ 11.3 µM); Solubility in water (literature) [1]: 2.5 µg/mL (≈ 8.05 µM)
10 | CO[C@H]1C[C@@H]2CC[C@@H](C)[C@@](O)(O2)C(=O)C(=O)N2CCCC[C@H]2C(=O)O[C@H]([C@H](C)C[C@@H]2CC[C@@H](O)[C@H](OC)C2)CC(=O)[C@H](C)/C=C(\C)[C@@H](O)[C@@H](OC)C(=O)[C@H](C)C[C@H](C)/C=C/C=C/C=C/1C [Rapamycin (sirolimus), Rapamycin] |  |  | 1.73 µg/mL |  | 
11 | COc1cc(/C=C/C(=O)CC(=O)/C=C/c2ccc(O)c(OC)c2)ccc1O [Curcumin] |  |  |  |  | Water Solubility [8]: poorly water soluble

The next lines start with results.

Row | solubility ([3]; Soluble (>[…]) in EtOH?) [µg/mL] | Soluble in EtOH/H2O mixture [4] | Structure (SMILES) | Water Solubility [1] | Physiological Charge [2] | further results
12 | > 1200 | Yes | Cc1cccc(C)c1OCC(=O)N[C@@H](Cc1ccccc1)[C@@H](O)C[C@H](Cc1ccccc1)NC(=O)[C@H](C(C)C)N1CCCNC1=O [Lopinavir] | 1.92 µg/mL |  | solubility at 2 min [6]: 14.9 µg/mL (≈ 23.7 µM); Solubility in water (literature) [1]: 1.9 µg/mL (≈ 3.02 µM)
13 | > 1200 | No | O=C1CCc2ccc(OCCCCN3CCN(c4cccc(Cl)c4Cl)CC3)cc2N1 [Aripiprazole] |  |  | solubility ([3]; approximate concentration in ethanol at which completely solubilised): ~2200 µg/mL (≈ 4910 µM)
14 | < 1200 |  | COc1ccc(Cl)cc1C(=O)NCCc1ccc(S(=O)(=O)NC(=O)NC2CCCCC2)cc1 [Glibenclamide] |  |  | 
